Data taken from ChEMBL document CHEMBL5537136 (J Med Chem, 2024).
Active and inactive are the calls of the source. The calls are words filed in the database; no cut-off is given here.

Tests used:
[1] = biological target: T1, Poly [ADP-ribose] polymerase tankyrase-1 (Homo sapiens, UniProt O95271); experiment: Inhibition of TNKS1 (unknown origin) measured after 1 hr incubation by microplate reader assay
T1 sequence (O95271 whole entry): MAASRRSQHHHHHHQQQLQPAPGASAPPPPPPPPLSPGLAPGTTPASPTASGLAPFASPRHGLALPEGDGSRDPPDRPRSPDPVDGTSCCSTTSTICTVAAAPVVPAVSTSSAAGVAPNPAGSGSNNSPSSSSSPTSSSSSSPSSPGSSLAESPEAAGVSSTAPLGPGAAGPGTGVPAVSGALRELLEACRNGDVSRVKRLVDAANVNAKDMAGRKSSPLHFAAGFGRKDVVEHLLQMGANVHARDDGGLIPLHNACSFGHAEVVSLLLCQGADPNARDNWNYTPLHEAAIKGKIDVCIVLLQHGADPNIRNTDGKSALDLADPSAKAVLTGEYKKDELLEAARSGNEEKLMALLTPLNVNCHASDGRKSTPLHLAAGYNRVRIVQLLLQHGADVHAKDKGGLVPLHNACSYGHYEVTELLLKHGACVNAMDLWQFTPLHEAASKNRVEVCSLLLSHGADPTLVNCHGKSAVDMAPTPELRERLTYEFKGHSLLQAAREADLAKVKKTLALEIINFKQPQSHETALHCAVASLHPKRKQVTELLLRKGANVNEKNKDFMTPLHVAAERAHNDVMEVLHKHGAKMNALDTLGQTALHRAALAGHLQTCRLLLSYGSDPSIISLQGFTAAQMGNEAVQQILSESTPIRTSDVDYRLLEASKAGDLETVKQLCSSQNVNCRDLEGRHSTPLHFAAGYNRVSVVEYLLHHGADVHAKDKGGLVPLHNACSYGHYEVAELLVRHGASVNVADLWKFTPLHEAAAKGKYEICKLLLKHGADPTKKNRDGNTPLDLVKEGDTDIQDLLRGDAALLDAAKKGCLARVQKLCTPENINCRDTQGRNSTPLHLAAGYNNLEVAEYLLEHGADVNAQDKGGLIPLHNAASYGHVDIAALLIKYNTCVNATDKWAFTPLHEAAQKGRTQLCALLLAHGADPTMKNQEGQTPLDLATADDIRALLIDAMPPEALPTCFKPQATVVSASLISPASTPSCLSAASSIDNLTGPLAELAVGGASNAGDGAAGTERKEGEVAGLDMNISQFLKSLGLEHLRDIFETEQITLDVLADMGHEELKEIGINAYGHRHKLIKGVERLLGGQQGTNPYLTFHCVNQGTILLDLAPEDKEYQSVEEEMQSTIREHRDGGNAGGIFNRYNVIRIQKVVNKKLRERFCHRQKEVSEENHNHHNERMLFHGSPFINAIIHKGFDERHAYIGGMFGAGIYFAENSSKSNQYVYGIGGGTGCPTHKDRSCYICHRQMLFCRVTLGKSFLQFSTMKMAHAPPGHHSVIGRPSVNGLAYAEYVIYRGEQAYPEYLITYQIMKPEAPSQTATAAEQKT

CT26 [2] = experiment: Induction of anti-tumor immunity in mouse CT26 cells assessed as increase in IFN-beta mRNA expression incubated for 2 days by quantitative real-time PCR analysis; assay type: functional, cell-based; settings: dose 0.04-0.44 µM, time 2.0 day
[3] = Clearance in ICR mouse at 1 mg/kg, iv measured upto 24 hrs by LC-MS/MS analysis; assay type: ADME, organism-based; settings: in vivo
CT26 [4] = experiment: Antitumor activity in immunocompetent mouse CT26 cell bearing Balb/c mouse model assessed as induction of IFN-beta release in tumor tissue at 6.25 to 25 mg/kg, IG treated twice a day measured after 14 days by immunohistochemistry staining based assay; assay type: functional, organism-based; settings: dose lower 6.25 mg/kg, dose upper […], time 14.0 day
CT26 [5] = experiment: Antitumor activity against mouse CT26 cells implanted in immunodeficient Balb/c mouse assessed as inhibition of tumor growth at 25 mg/kg, IG twice daily measured after 10 days relative to control; assay type: functional; settings: CT26, po, 240 h, time 10 day, read-out: TGI
CT26 [6] = experiment: Antitumor activity in immunocompetent mouse CT26 cell bearing mouse model assessed as tumor growth inhibition at 12.5 mg/kg, IG treated twice a day measured after 14 days relative to control; assay type: functional; settings: CT26, po, 336 h, time 14 day, read-out: TGI
CT26 [7] = experiment: cells; settings: Mus musculus, CT26, 144 h
[8] = MRT (0 to infinity) in ICR mouse at 1 mg/kg, iv measured upto 24 hrs by LC-MS/MS analysis; assay type: ADME, organism-based; settings: in vivo
[9] = Tmax in ICR mouse at 10 mg/kg, IG measured upto 24 hrs by LC-MS/MS analysis; assay type: ADME, organism-based; settings: in vivo, po
[10] = biological target: T2, Protein mono-ADP-ribosyltransferase PARP11 (Homo sapiens, UniProt Q9NR21); experiment: Inhibition of PARP11 (unknown origin) measured after 1 hr incubation by microplate reader assay
T2 sequence (Q9NR21 whole entry): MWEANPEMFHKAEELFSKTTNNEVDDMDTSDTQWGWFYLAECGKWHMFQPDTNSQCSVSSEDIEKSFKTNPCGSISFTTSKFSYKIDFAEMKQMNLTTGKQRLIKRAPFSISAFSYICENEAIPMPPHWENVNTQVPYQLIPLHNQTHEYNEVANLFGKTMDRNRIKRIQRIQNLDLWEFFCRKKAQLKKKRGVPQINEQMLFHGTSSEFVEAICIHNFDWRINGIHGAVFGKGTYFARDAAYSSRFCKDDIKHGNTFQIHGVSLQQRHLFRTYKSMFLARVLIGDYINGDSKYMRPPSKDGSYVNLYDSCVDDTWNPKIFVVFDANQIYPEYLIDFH

[11] = biological target: Poly [ADP-ribose] polymerase 2 (Homo sapiens, UniProt Q9UGN5); experiment: Inhibition of PARP2 (unknown origin) measured after 1 hr incubation by microplate reader assay
Poly [ADP-ribose] polymerase 2, sequence (Q9UGN5 whole entry): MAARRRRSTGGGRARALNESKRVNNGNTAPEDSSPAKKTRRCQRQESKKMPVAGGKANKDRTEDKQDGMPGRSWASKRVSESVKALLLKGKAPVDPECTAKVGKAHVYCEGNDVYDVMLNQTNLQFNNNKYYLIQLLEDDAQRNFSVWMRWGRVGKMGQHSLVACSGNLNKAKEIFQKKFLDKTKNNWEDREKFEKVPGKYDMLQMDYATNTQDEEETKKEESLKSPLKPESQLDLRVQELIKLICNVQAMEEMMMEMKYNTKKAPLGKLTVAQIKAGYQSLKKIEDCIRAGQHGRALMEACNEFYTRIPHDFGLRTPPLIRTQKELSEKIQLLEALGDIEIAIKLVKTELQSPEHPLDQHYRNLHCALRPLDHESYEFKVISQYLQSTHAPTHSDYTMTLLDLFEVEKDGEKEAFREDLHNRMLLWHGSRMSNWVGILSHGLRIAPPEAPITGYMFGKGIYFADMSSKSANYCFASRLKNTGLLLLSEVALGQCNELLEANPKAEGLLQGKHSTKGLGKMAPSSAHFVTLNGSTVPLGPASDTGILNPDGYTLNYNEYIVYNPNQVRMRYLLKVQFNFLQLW

[12] = Toxicity in Balb/c mouse bearing mouse CT26 cells assessed as morphological changes in heart at 6.25 to 25 mg/kg, IG measured after 14 days by hematoxylin and eosin staining based assay; assay type: organism-based; settings: in vivo, po, 336 h, dose 6.25-25 mg/kg, time 14 day
[13] = Oral bioavailability in ICR mouse at 10 mg/kg measured upto 24 hrs by LC-MS/MS analysis; assay type: ADME, organism-based; settings: in vivo
CT26 [14] = experiment: Antitumor activity against mouse CT26 cells implanted in Balb/c mouse assessed as increase in infiltration of CD3 positive CD4 positive T lymphocytes in tumors at 25 mg/kg, IG measured after 14 days by flow cytometry; assay type: functional, organism-based; settings: time 14.0 day
CT26 [15] = experiment: cells; settings: Mus musculus, CT26, 144 h; remark: listed apart in the source
CT26 [16] = experiment: Induction of anti-tumor immunity in mouse CT26 cells assessed as increase in CXCL10 mRNA expression incubated for 2 days by quantitative real-time PCR analysis; assay type: functional, cell-based; settings: dose 0.04-0.44 µM, time 2.0 day
CT26 [17] = experiment: Antitumor activity in immunocompetent mouse CT26 cell bearing mouse model assessed as tumor growth inhibition at 6.25 mg/kg, IG treated twice a day measured after 14 days relative to control; assay type: functional; settings: CT26, po, 336 h, time 14 day, read-out: TGI
[18] = biological target: Protein mono-ADP-ribosyltransferase PARP14 (Homo sapiens, UniProt Q460N5); experiment: Inhibition of PARP14 (unknown origin) measured after 1 hr incubation by microplate reader assay
Protein mono-ADP-ribosyltransferase PARP14, sequence (Q460N5 whole entry): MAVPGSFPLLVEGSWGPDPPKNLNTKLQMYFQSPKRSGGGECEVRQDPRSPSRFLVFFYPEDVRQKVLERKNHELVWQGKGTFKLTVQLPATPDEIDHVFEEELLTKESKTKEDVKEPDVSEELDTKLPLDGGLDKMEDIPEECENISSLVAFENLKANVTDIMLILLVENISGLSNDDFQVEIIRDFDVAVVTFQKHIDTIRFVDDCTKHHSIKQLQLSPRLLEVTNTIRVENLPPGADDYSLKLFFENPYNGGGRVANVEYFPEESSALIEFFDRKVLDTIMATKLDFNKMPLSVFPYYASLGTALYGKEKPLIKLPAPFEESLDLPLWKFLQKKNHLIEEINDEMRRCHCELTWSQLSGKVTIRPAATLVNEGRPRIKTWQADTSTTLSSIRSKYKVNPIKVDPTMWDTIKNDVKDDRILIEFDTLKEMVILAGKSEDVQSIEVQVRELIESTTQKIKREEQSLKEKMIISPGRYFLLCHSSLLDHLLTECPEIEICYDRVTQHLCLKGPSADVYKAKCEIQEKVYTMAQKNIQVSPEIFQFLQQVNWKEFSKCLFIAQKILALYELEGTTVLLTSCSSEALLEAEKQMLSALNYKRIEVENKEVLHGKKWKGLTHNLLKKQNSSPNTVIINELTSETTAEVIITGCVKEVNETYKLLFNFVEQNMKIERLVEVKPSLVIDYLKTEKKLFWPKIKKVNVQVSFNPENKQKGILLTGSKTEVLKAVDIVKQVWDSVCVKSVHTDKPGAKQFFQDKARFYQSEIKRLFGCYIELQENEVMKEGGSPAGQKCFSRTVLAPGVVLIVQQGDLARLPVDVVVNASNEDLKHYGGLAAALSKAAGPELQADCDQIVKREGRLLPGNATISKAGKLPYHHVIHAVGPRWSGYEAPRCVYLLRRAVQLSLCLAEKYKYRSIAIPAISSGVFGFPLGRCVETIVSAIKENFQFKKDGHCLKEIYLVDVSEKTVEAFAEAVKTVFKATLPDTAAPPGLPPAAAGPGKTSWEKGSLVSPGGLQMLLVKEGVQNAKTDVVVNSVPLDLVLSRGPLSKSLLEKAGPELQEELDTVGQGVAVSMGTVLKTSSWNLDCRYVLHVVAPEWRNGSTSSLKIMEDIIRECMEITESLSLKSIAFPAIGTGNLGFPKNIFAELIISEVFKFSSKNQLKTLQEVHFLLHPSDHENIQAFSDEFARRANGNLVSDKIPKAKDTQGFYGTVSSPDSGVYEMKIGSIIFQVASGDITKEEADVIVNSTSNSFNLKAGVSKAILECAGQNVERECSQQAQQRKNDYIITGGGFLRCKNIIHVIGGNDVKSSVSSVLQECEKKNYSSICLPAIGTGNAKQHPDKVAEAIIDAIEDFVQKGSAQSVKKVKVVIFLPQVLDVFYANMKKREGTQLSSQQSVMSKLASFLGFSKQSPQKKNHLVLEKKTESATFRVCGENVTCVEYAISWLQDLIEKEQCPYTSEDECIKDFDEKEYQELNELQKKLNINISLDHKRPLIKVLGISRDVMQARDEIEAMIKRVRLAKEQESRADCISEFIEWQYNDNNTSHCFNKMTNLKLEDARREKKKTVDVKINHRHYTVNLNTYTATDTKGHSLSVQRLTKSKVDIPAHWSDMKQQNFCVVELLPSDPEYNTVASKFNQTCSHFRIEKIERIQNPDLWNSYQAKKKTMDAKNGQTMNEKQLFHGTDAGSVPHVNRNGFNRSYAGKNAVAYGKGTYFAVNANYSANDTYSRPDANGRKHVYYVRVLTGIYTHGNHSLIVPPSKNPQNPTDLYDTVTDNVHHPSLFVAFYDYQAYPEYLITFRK

Structure (SMILES): C[C@@H](C(=O)N1CCN(c2ncc(C(F)(F)F)cn2)CC1)n1cc2cccc(C(N)=O)c2n1
- IC50 [1]: 0.901 µM
- Activity (CT26 [2]): Dose-Dependent Effect
- clearance [3]: 9.62 mL/min/kg
- Activity (CT26 [4]): Active
- inhibition in vivo at 25 mg/kg (CT26 [5]): 4%
- inhibition in vivo at 12.5 mg/kg (CT26 [6]): 53%
- IC50 (CT26 [7]): 36.1 µM
- MRT inf [8]: 1.52 h
- Tmax [9]: 0.5 h
- IC50 [10]: > 5 µM
- IC50 [11]: 0.303 µM
- Activity [12]: Non-Toxic
- bioavailability [13]: 94.6%
- Activity (CT26 [14]): Active
- IC50 (CT26 [15]): 16.2 µM
- Activity (CT26 [16]): Dose-Dependent Effect
- inhibition in vivo at 6.25 mg/kg (CT26 [17]): 42%
- IC50 [18]: > 1.3 µM
